Test results as given in US9359371B2, “Bicyclic substituted pyrimidine compounds” (Xuanzhu Pharma Co., Ltd., priority 2012, dated 2016).
Where two headings read alike, the source gives them in different places.

Assay: Pharmacokinetics (PK) in SD rats
Type: in vivo
Settings: rat; for AUC(0-inf) / Cmax / Tmax / half-life / bioavailability: SD, plasma; for bioavailability: read-out: F % (absolute bioavailability)
Protocol: Experiment 9: Assay of Pharmacokinetics (PK) of the Compounds of the Present Invention in SD Rats
Compound 1-54 of the present invention were prepared by the methods described in Example 1 to Example 54 of the present invention.
The control drug Avanafil, of which the structure was stated above, was purchased commercially.
Collection of the rat's blood: The animal was fixed. The tail was warmed with a water bath 10 min before the collection time. About 200 μL of whole blood was collected from the tail vein. The collected blood was collected into anticoagulant tubes containing heparin sodium. The blood samples were centrifuged at 4° C. by 8000 rpm for 6 min to give the plasma samples, which should be prepared within 30 min after the collection of blood. The plasma samples were stored in a freezer of −80° C. until test.
The result output by Analyst 1.5.1 of AB Company was used as the concentration of the tested sample (plasma sample). The mean value, standard deviation, variable coefficient and the like were calculated by Microsoft Excel (except for the result directly output by Analyst 1.5.1). Parameters of PK were calculated by Pharsight Phoenix 6.2 software. Formula for calculating oral bioavailability: F %=AUCinf−po*Doseiv/AUCinf−iv*Dosepo.

[1] = po, intragastric administration, 2 mg/kg
[2] = po, intragastric administration, 5 mg/kg

SMILES	AUC(0-inf) [1] [ng·h/mL]	Cmax [1] [ng/mL]	Tmax [1] [h]	half-life [1] [h]	bioavailability [1] [%]	AUC(0-inf) (intravenous injection, 1 mg/kg) [ng·h/mL]	half-life (intravenous injection, 1 mg/kg) [h]	Cl_obs (intravenous injection, 1 mg/kg) [mL/min/kg]	Vss_obs (intravenous injection, 1 mg/kg) [L/kg]	AUC(0-inf) [2] [ng·h/mL]	Cmax [2] [ng/mL]	Tmax [2] [h]	half-life [2] [h]	bioavailability [2] [%]	AUC(0-inf) (intravenous injection, 2 mg/kg) [ng·h/mL]	half-life (intravenous injection, 2 mg/kg) [h]	Cl_obs (intravenous injection, 2 mg/kg) [mL/min/kg]	Vss_obs (intravenous injection, 2 mg/kg) [L/kg]
COc1ccc(CNc2nc(N3CC4CC4C3)ncc2C(=O)NCc2ccccn2)cc1Cl (centres unmarked) [Compound 2, 2-(3-azabicyclo[3.1.0]hexan-3-yl)-4-((3-chloro-4-methoxybenzyl)amino)-N-(pyridin-2-ylmethyl)pyrimidine-5-formamide]	69	12	1	2.95	12	219	1.78	77.2	10.57	–	–	–	–	–	–	–	–	–
CCOc1ccc(CNc2nc(N3CC4CC4C3)ncc2C(=O)N[C@H]2CC[C@H](O)CC2)cc1C (stereo partly drawn) [Compound 51, 2-(3-azabicyclo[3.1.0]hexan-3-yl)-N-(trans-4-hydroxycyclohexyl)-4-((4-ethoxy-3-methylbenzyl)amino)pyrimidine-5-formamide]	–	–	–	–	–	–	–	–	–	5800	402	6	7.3	52	4400	8.8	7.83	5.58
CCOc1ccc(CNc2nc(N3CC4CC4C3)ncc2C(=O)N[C@H]2CC[C@H](O)CC2)cc1Cl (stereo partly drawn) [Compound 52, 2-(3-azabicyclo[3.1.0]hexan-3-yl)-4-((3-chloro-4-ethoxybenzyl)amino)-N-((trans)-4-hydroxycyclohexyl)pyrimidine-5-formamide]	–	–	–	–	–	–	–	–	–	6000	392	6	8.4	65	3710	4.6	9	3.02
CCOc1ccc(CNc2nc(N3CC4CC4C3)ncc2C(=O)N[C@H]2CC[C@H](O)CC2)cc1F (stereo partly drawn) [Compound 49, 2-(3-azabicyclo[3.1.0]hexan-3-yl)-4-((3-fluoro-4-ethoxybenzyl)amino)-N-((trans)-4-hydroxycyclohexyl)pyrimidine-5-formamide]	–	–	–	–	–	–	–	–	–	5840	505	4	4.1	60	3860	3.9	8.67	2.46

The remaining lines, values ahead:

AUC(0-inf) [1] [ng·h/mL]	Cmax [1] [ng/mL]	Tmax [1] [h]	half-life [1] [h]	bioavailability [1] [%]	AUC(0-inf) (intravenous injection, 1 mg/kg) [ng·h/mL]	half-life (intravenous injection, 1 mg/kg) [h]	Cl_obs (intravenous injection, 1 mg/kg) [mL/min/kg]	Vss_obs (intravenous injection, 1 mg/kg) [L/kg]	AUC(0-inf) [2] [ng·h/mL]	Cmax [2] [ng/mL]	Tmax [2] [h]	half-life [2] [h]	bioavailability [2] [%]	AUC(0-inf) (intravenous injection, 2 mg/kg) [ng·h/mL]	half-life (intravenous injection, 2 mg/kg) [h]	Cl_obs (intravenous injection, 2 mg/kg) [mL/min/kg]	Vss_obs (intravenous injection, 2 mg/kg) [L/kg]	SMILES
–	–	–	–	–	–	–	–	–	1420	200	4	2.7	40	1430	2.3	23.8	3.87	CCOc1ccc(CNc2nc(N3CC4CC4C3)ncc2C(=O)N[C@H]2CC[C@H](O)CC2)cc1C(F)(F)F (stereo partly drawn) [Compound 54, 2-(3-azabicyclo[3.1.0]hexan-3-yl)-N-((trans)-4-hydroxycyclohexyl)-4-((4-ethoxy-3-(trifluoromethyl)benzyl)amino)pyrimidine-5-formamide]
–	–	–	–	–	–	–	–	–	917	156	4	–	25	1500	1.8	22.3	2.33	COc1ccc(CNc2nc(N3CC4CC4C3)ncc2C(=O)N[C@H]2CC[C@H](O)CC2)cc1C(F)(F)F (stereo partly drawn) [Compound 53, 2-(3-azabicyclo[3.1.0]hexan-3-yl)-N-((trans)-4-hydroxycyclohexyl)-4-((4-methoxy-3-(trifluoromethyl)benzyl)amino)pyrimidine-5-formamide]
